Measured values reported in PubChem BioAssay (NCI).
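In this assay, cells in 96-well plates receive the compound at five concentrations for 48 hours. Endpoints are linearly interpolated between the surrounding concentrations. GI50 is the concentration that inhibits growth by half. TGI marks complete inhibition of growth.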

Legend:
Test in all cases: NCI anticancer screen, dose series, 48 h
T-47D breast = test system: T-47D breast
DU-145 prostate = test system: DU-145 prostate
SK-MEL-5 melanoma = test system: SK-MEL-5 melanoma
HS 578T breast = test system: HS 578T breast
HCT-15 colon = test system: HCT-15 colon
OVCAR-3 ovarian = test system: OVCAR-3 ovarian
SK-MEL-2 melanoma = test system: SK-MEL-2 melanoma
CCRF-CEM leukemia = test system: CCRF-CEM leukemia
SNB-19 CNS = test system: SNB-19 CNS
MDA-MB-231 breast = test system: MDA-MB-231 breast

Row | SMILES | GI50 (T-47D breast) [µM] | TGI (T-47D breast) [µM] | GI50 (DU-145 prostate) [µM] | TGI (DU-145 prostate) [µM] | GI50 (SK-MEL-5 melanoma) [µM] | TGI (SK-MEL-5 melanoma) [µM] | GI50 (HS 578T breast) [µM] | TGI (HS 578T breast) [µM] | GI50 (HCT-15 colon) [µM] | TGI (HCT-15 colon) [µM] | GI50 (OVCAR-3 ovarian) [µM] | TGI (OVCAR-3 ovarian) [µM] | GI50 (SK-MEL-2 melanoma) [µM] | TGI (SK-MEL-2 melanoma) [µM] | GI50 (CCRF-CEM leukemia) [µM] | TGI (CCRF-CEM leukemia) [µM] | GI50 (SNB-19 CNS) [µM] | TGI (SNB-19 CNS) [µM] | GI50 (MDA-MB-231 breast) [µM] | TGI (MDA-MB-231 breast) [µM]
1 | O=C1NC(=NCc2cccs2)O/C1=C\c1ccc2ncccc2c1 | 2.98 | 12.6 | 5.82 | > 25 | 4.63 | 9.83 | 4.72 | 14.8 | 6.38 | > 25 | 4.46 | 12.6 | 4.2 | 9.82 | 4.8 | 16.7 | 7.04 | > 25 | 8.23 | > 25
2 | N#C[Se]CCN1C(=O)c2ccccc2C1=O | 3.45 | 20.2 | 2.58 | 7.77 | – | – | 1.43 | 6.09 | 3.58 | 14.7 | 2.73 | 9.39 | 3.71 | 19.1 | 0.934 | 30.3 | 2.41 | 8.66 | 2.74 | 9.65
3 | CC(=O)O[C@H]([C@H](OC(C)=O)[C@H](C)OC(C)=O)[C@@H](/C=C/[C@H]1CC=CC(=O)O1)OC(C)=O | 38.3 | > 100 | 38.2 | > 100 | 33.2 | > 100 | 65.5 | > 100 | 44.9 | > 100 | – | – | 36.4 | > 100 | 36.7 | > 100 | 80.5 | > 100 | > 100 | > 100
4 | O=[N+]([O-])c1ccc(/C=C(/c2ccc([N+](=O)[O-])o2)S(=O)(=O)c2ccccc2)cc1 | – | > 100 | – | > 100 | – | 34.3 | – | > 100 | – | 88.7 | – | > 100 | – | > 100 | – | – | – | > 100 | – | 88.2
5 | O=C1C[C@@H]2OCC=C3C[N+]4([O-])CC[C@]56c7ccccc7N1[C@H]5[C@H]2[C@H]3C[C@@H]64 (some centres undefined) | > 100 | > 100 | > 100 | > 100 | > 100 | > 100 | > 100 | > 100 | > 100 | > 100 | > 100 | > 100 | – | – | > 100 | > 100 | > 100 | > 100 | > 100 | > 100
6 | COc1cc(NC(=O)COc2ccccc2)c(C(N)=O)cc1OC | 3.46 | > 100 | 0.914 | > 100 | 0.766 | > 100 | 0.771 | 26.9 | 0.804 | > 100 | 0.472 | 10.5 | – | – | 0.562 | > 100 | 3.31 | 51.9 | 2.39 | 42.4
7 | CN(C)CCCC1(c2ccc(F)cc2)OCc2cc(-c3csc4ccccc34)ccc21 (centres undefined) | 1.71 | 3.7 | 1.72 | 3.15 | 1.77 | 3.17 | 1.74 | 3.76 | 1.64 | 3.07 | 1.73 | 3.26 | 1.83 | 3.58 | – | – | 1.6 | 3.04 | 1.34 | 2.68
